Source: US11446287B2, “Compounds and methods for EP300 or CBP modulation and indications therefor” (Opna Immuno-Oncology SA, priority 2019, dated 2022)

What follows are molecules tested against T1, Recombinant human BRD4 containing dual bromodomains (BRD4-BD12 (1-477)) (Homo sapiens, UniProt O60885) (assay: BRD4 Alphascreen binding assay).
T1 construct: Recombinant human BRD4 containing dual bromodomains (BRD4-BD12 (1-477)); made in house; host or cells: E. coli BL21-CodonPlus (DE3), modified pET vector
In short: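 His-tagged human BRD4 tandem bromodomains (1-477, E. coli) incubated 1 h at room temperature with biotinylated tetra-acetylated H4 (1-21) peptide and compound in HEPES pH 7.5 buffer with 2 mM DTT. AlphaScreen signal read 30 min after adding beads (7.5 μg/ml); IC50 from four-parameter fit after normalization to controls.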

| Structure (SMILES) | IC50 |
| --- | --- |
| CCOc1cc(C(=O)O)cc(OCC)c1-n1cc(-c2cnn(CC3CC3)c2)c2ncc(-c3c(C)noc3C)cc21 [P-0264, 4-(3-(1-(cyclopropylmethyl)-1H-pyrazol-4-yl)-6-(3,5-dimethylisoxazol-4-yl)-1H-pyrrolo[3,2-b]pyridin-1-yl)-3,5-diethoxybenzoic acid] | 1 to 8 µM |
| Cc1noc(C)c1-c1cnc2c(c1)c(-c1ccc(C(=O)O)cc1OC(F)(F)F)cn2[C@H]1CCOC1 [P-0285, (S)-4-(5-(3,5-dimethylisoxazol-4-yl)-1-(tetrahydrofuran-3-yl)-1H-pyrrolo[2,3-b]pyridin-3-yl)-3-(trifluoromethoxy)benzoic acid] | 8 to 1000 µM |
| Cc1noc(C)c1-c1cnc2c(c1)c(-c1ccc(C(=O)O)cc1OC(F)(F)F)cn2-c1ccncc1Cl [P-0253, 4-(1-(3-chloropyridin-4-yl)-5-(3,5-dimethylisoxazol-4-yl)-1H-pyrrolo[2,3-b]pyridin-3-yl)-3-(trifluoromethoxy)benzoic acid] | 8 to 1000 µM |
| Cc1noc(C)c1-c1cnc2c(c1)c(-c1ccc(C(=O)O)cc1OC(F)(F)F)cn2C1CCN(S(C)(=O)=O)CC1 [P-0292, 4-(5-(3,5-dimethylisoxazol-4-yl)-1-(1-(methylsulfonyl)piperidin-4-yl)-1H-pyrrolo[2,3-b]pyridin-3-yl)-3-(trifluoromethoxy)benzoic acid] | 1 to 8 µM |
| Cc1noc(C)c1-c1cnc2c(c1)c(-c1ccc(C(=O)O)cc1OC1CCC1)cn2-c1ccccc1 [P-0276, 3-cyclobutoxy-4-(5-(3,5-dimethylisoxazol-4-yl)-1-phenyl-1H-pyrrolo[2,3-b]pyridin-3-yl)benzoic acid] | 1 to 8 µM |
| Cc1noc(C)c1-c1cnc2c(-c3cc(C(=O)O)ccc3Cl)c(C(F)(F)F)n([C@@H](C)c3ccccn3)c2c1 [P-0257, (S)-4-chloro-3-(6-(3,5-dimethylisoxazol-4-yl)-1-(1-(pyridin-2-yl)ethyl)-2-(trifluoromethyl)-1H-pyrrolo[3,2-b]pyridin-3-yl)benzoic acid] | 8 to 1000 µM |
| CCOc1cc(C(=O)O)cc(OCC)c1-n1cc(CC2CCC2)c2ncc(-n3c(C)nnc3C)cc21 [P-0270, 4-(3-(cyclobutylmethyl)-6-(3,5-dimethyl-4H-1,2,4-triazol-4-yl)-1H-pyrrolo[3,2-b]pyridin-1-yl)-3,5-diethoxybenzoic acid] | 8 to 1000 µM |
| Cc1cc(C#N)ccc1-n1cc(-c2ccc(C(=O)O)cc2OC(F)(F)F)c2cc(-c3c(C)noc3C)cnc21 [P-0310, 4-(1-(4-cyano-2-methylphenyl)-5-(3,5-dimethylisoxazol-4-yl)-1H-pyrrolo[2,3-b]pyridin-3-yl)-3-(trifluoromethoxy)benzoic acid] | 1 to 8 µM |
| CCOc1cc(C(=O)O)cc(OCC)c1-n1cc(-c2cnn(C3CC3)c2)c2ncc(-c3c(C)noc3C)cc21 [P-0265, 4-(3-(1-cyclopropyl-1H-pyrazol-4-yl)-6-(3,5-dimethylisoxazol-4-yl)-1H-pyrrolo[3,2-b]pyridin-1-yl)-3,5-diethoxybenzoic acid] | 1 to 8 µM |
| CCCn1nc(C(=O)O)c(N)c1-c1cn(-c2ccc(F)cc2F)c2ncc(-c3c(C)noc3C)cc12 [P-0303, 4-amino-5-(1-(2,4-difluorophenyl)-5-(3,5-dimethylisoxazol-4-yl)-1H-pyrrolo[2,3-b]pyridin-3-yl)-1-propyl-1H-pyrazole-3-carboxylic acid] | 8 to 1000 µM |
| Cc1nn(C(F)F)cc1-n1cc(-c2ccc(C(=O)O)cc2OC(F)(F)F)c2cc(-c3c(C)noc3C)cnc21 [P-0288, 4-(1-(1-(difluoromethyl)-3-methyl-1H-pyrazol-4-yl)-5-(3,5-dimethylisoxazol-4-yl)-1H-pyrrolo[2,3-b]pyridin-3-yl)-3-(trifluoromethoxy)benzoic acid] | 1 to 8 µM |
| Cc1noc(C)c1-c1cnc2c(c1)c(-c1ccc(C(=O)O)cc1OC(F)(F)F)cn2-c1c(F)cccc1C#N [P-0254, 4-(1-(2-cyano-6-fluorophenyl)-5-(3,5-dimethylisoxazol-4-yl)-1H-pyrrolo[2,3-b]pyridin-3-yl)-3-(trifluoromethoxy)benzoic acid] | 1 to 8 µM |
| Cc1noc(C)c1-c1cnc2c(c1)c(-c1ccc(C(=O)O)cc1OC(F)F)cn2-c1ccccc1 [P-0273, 3-(difluoromethoxy)-4-(5-(3,5-dimethylisoxazol-4-yl)-1-phenyl-1H-pyrrolo[2,3-b]pyridin-3-yl)benzoic acid] | 1 to 8 µM |
| Cc1noc(C)c1-c1cnc2c(c1)c(-c1ccc(C(=O)O)cc1OC(F)(F)F)cn2-c1cnn(CC(C)(C)O)c1 [P-0294, 4-(5-(3,5-dimethylisoxazol-4-yl)-1-(1-(2-hydroxy-2-methylpropyl)-1H-pyrazol-4-yl)-1H-pyrrolo[2,3-b]pyridin-3-yl)-3-(trifluoromethoxy)benzoic acid] | 0.0001 to 1 µM |
| CCOc1cc(C(=O)O)cc(OCC)c1-n1cc(-c2cnn(CCC#N)c2)c2ncc(-c3c(C)noc3C)cc21 [P-0266, 4-(3-(1-(2-cyanoethyl)-1H-pyrazol-4-yl)-6-(3,5-dimethylisoxazol-4-yl)-1H-pyrrolo[3,2-b]pyridin-1-yl)-3,5-diethoxybenzoic acid] | 1 to 8 µM |
| Cc1noc(C)c1-c1cnc2c(c1)c(-c1ccc(-c3nn[nH]n3)cc1)cn2C(c1ccccn1)C1CCCC1 (stereo not shown) [P-0024, 4-(3-(4-(2H-tetrazol-5-yl)phenyl)-1-(cyclopentyl(pyridin-2-yl)methyl)-1H-pyrrolo[2,3-b]pyridin-5-yl)-3,5-dimethylisoxazole] | 8 to 1000 µM |
| Cc1noc(C)c1-c1cnc2c(c1)c(-c1ccc(C(=O)O)cc1OC(F)(F)F)cn2-c1cnccc1O [P-0252, 4-(5-(3,5-dimethylisoxazol-4-yl)-1-(4-hydroxypyridin-3-yl)-1H-pyrrolo[2,3-b]pyridin-3-yl)-3-(trifluoromethoxy)benzoic acid] | 8 to 1000 µM |
| CCOc1cc(C(=O)O)cc(OCC)c1-n1cc(C2CCC(F)(F)CC2)c2ncc(-c3c(C)noc3C)cc21 [P-0271, 4-(3-(4,4-difluorocyclohexyl)-6-(3,5-dimethylisoxazol-4-yl)-1H-pyrrolo[3,2-b]pyridin-1-yl)-3,5-diethoxybenzoic acid] | 8 to 1000 µM |
| Cc1noc(C)c1-c1cnc2c(-c3ccc(F)cc3F)cn(-c3c(OC(C)C)cc(C(=O)O)cc3OC(C)C)c2c1 [P-0269, 4-(3-(2,4-difluorophenyl)-6-(3,5-dimethylisoxazol-4-yl)-1H-pyrrolo[3,2-b]pyridin-1-yl)-3,5-diisopropoxybenzoic acid] | 1 to 8 µM |
| Cc1noc(C)c1-c1cnc2c(-c3ccccc3)cn(-c3cc(C(=O)O)ccc3OC(F)(F)F)c2c1 [P-0274, 3-(6-(3,5-dimethylisoxazol-4-yl)-3-phenyl-1H-pyrrolo[3,2-b]pyridin-1-yl)-4-(trifluoromethoxy)benzoic acid] | 1 to 8 µM |
| Cc1noc(C)c1-c1cnc2c(c1)c(-c1ccc(C(=O)O)cc1OC(F)(F)F)cn2-c1ccc(S(C)(=O)=O)cc1 [P-0282, 4-(5-(3,5-dimethylisoxazol-4-yl)-1-(4-(methylsulfonyl)phenyl)-1H-pyrrolo[2,3-b]pyridin-3-yl)-3-(trifluoromethoxy)benzoic acid] | 0.0001 to 1 µM |
| CCOC(=O)c1cc(-c2cn(-c3ccc(F)cc3F)c3ncc(-c4c(C)noc4C)cc23)c(OCC)cc1O [P-0248, ethyl 5-(1-(2,4-difluorophenyl)-5-(3,5-dimethylisoxazol-4-yl)-1H-pyrrolo[2,3-b]pyridin-3-yl)-4-ethoxy-2-hydroxybenzoate] | 8 to 1000 µM |
